According to patent publication US9409905B2, “Antibacterial compounds and methods for use” (PTC THERAPEUTICS, INC., priority 2011, dated 2016):
Converted amounts (≈) assume the structure as drawn.

Key:
[1] = system: Escherichia coli (E. coli) BAS849; test: Antibacterial activity, microbroth dilution MIC (Table 1); format: cell-based; settings: microbroth dilution, super sensitive Gram-negative E. coli BAS849, read-out: MIC, BAS849
Procedure, shortened: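 In a microbroth dilution test, the minimum inhibitory concentration was defined as the lowest compound level preventing growth seen by eye, and was given in μg/mL.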

[2] = system: Staphylococcus aureus (S. aureus) 29213; test: as above; format: cell-based; settings: microbroth dilution, Gram-positive S. aureus 29213, read-out: MIC, 29213
Procedure, shortened: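 Broth microdilution; endpoint = no macroscopic growth; value = lowest inhibiting concn, μg/mL.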

E. coli 25922 = test: as above; format: cell-based, Escherichia coli; settings: Escherichia coli; microbroth dilution; control Gram-negative E. coli 25922 strain; read-out: MIC, 25922
Procedure, shortened: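 Microbroth dilution was used. MIC, in μg/mL, is the lowest drug concentration preventing macroscopically visible growth under the test conditions.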

E. coli LZ3111 = test: Antibacterial activity, MIC, quinolone resistant strain (Table 2); format: cell-based; settings: Escherichia coli, LZ3111, read-out: MIC LZ3111
Procedure, shortened: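 Strain carries mutations conferring high-level quinolone resistance; tested by microbroth dilution, MIC recorded in μg/mL as lowest concentration preventing visible growth.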

E. coli ELZ4000 = test: Antibacterial activity, MIC, multi-drug resistant clinical isolate (Table 3); format: cell-based; settings: Escherichia coli, ELZ4000, read-out: MIC ELZ4000
Procedure, shortened: (§1)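 Microbroth dilution. Endpoint: absence of macroscopically visible growth. Value = MIC, μg/mL.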

E. coli ELZ4251 = test: as above; format: cell-based; settings: Escherichia coli
Procedure, shortened: as §1

[3] = system: Acinetobacter baumannii (A. baumannii) BAA747; test: Antibacterial activity, MIC (Table 4); format: cell-based; settings: A. baumannii BAA747, read-out: MIC, BAA747
Procedure, shortened: (§2)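 Values are minimum inhibitory concentrations in μg/mL from broth microdilution, meaning no macroscopically visible growth at that concentration. Resistant MXX isolates are multi-drug resistant clinical strains.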

[4] = system: Klebsiella pneumoniae (K. pneumoniae) 35657; test: Antibacterial activity, MIC (Table 4); format: cell-based; settings: K. pneumoniae 35657, read-out: MIC, 35657
Procedure, shortened: as §2

A. baumannii MXX2240 = test: Antibacterial activity, MIC, resistant strain (Table 4); format: cell-based; settings: Acinetobacter baumannii, MXX2240; resistant A. baumannii MMX2240, multi-drug resistant clinical isolate; read-out: MIC, MMX2240
Procedure, shortened: as §2

K. pneumoniae MXX1232 = test: as above; format: cell-based; settings: Klebsiella pneumoniae, MXX1232; resistant K. pneumoniae MMX1232, multi-drug resistant clinical isolate; read-out: MIC, MMX1232
Procedure, shortened: as §2

[5] = system: Pseudomonas aeruginosa (P. aeruginosa) 27853; test: Antibacterial activity, MIC (Table 5); format: cell-based; settings: P. aeruginosa 27853, read-out: MIC, 27853
Procedure, shortened: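 Compounds are serially diluted in broth and inoculated with the organism. Growth is then inspected macroscopically, and the lowest concentration showing none is taken as the MIC (μg/mL).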

[6] = system: Haemophilus influenzae (H. influenzae) 49247; test: Antibacterial activity, MIC (Table 6); format: cell-based
Procedure, shortened: (§3)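 Compounds are serially diluted in microbroth. Bacteria are then grown under the test conditions, and growth is inspected macroscopically. The MIC is recorded in μg/mL as the lowest concentration without visible growth.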

[7] = system: Moraxella catarrhalis (M. catarrhalis) 25238; test: Antibacterial activity, MIC (Table 7); format: cell-based
Procedure, shortened: as §3

[8] = system: Neisseria meningitidis (N. meningitidis) 13090; test: Antibacterial activity, MIC (Table 8); format: cell-based
Procedure, shortened: as §3

Cn1ccc2cc(-c3[nH]c(=O)c(C(=O)O)c(O)c3C3CC3)ccc21 [Cpd 36, 5-cyclopropyl-4-hydroxy-6-(1-methyl-1H-indol-5-yl)-2-oxo-1,2-dihydropyridine-3-carboxylic acid]
MIC [1]: 1 to 3.5 µg/mL (≈ 3.08 to 10.8 µM)
MIC [2]: 3.5 to 12.5 µg/mL (≈ 10.8 to 38.5 µM)
MIC (E. coli 25922): 12.5 to 150 µg/mL (≈ 38.5 to 462 µM)
MIC (E. coli LZ3111): 3.5 to 12.5 µg/mL (≈ 10.8 to 38.5 µM)
MIC (E. coli ELZ4000): 3.5 to 12.5 µg/mL (≈ 10.8 to 38.5 µM)
MIC (E. coli ELZ4251): 1 to 3.5 µg/mL (≈ 3.08 to 10.8 µM)
MIC [3]: 12.5 to 150 µg/mL (≈ 38.5 to 462 µM)
MIC [4]: 12.5 to 150 µg/mL (≈ 38.5 to 462 µM)
MIC (A. baumannii MXX2240): 1 to 3.5 µg/mL (≈ 3.08 to 10.8 µM)
MIC (K. pneumoniae MXX1232): 12.5 to 150 µg/mL (≈ 38.5 to 462 µM)
MIC [5]: 12.5 to 150 µg/mL (≈ 38.5 to 462 µM)
MIC [6]: 3.5 to 12.5 µg/mL (≈ 10.8 to 38.5 µM)
MIC [7]: 1 to 3.5 µg/mL (≈ 3.08 to 10.8 µM)
MIC [8]: < 1 µg/mL

CCc1c(-c2ccc3c(c2)cc(CNCCF)n3C)[nH]c(=O)c(C(=O)O)c1O [Cpd 201, 5-ethyl-6-(2-((2-fluoroethylamino)methyl)-1-methyl-1H-indol-5-yl)-4-hydroxy-2-oxo-1,2-dihydropyridine-3-carboxylic acid]
MIC [1]: < 1 µg/mL
MIC [2]: 3.5 to 12.5 µg/mL (≈ 9.03 to 32.3 µM)
MIC (E. coli 25922): < 1 µg/mL
MIC (E. coli LZ3111): 1 to 3.5 µg/mL (≈ 2.58 to 9.03 µM)
MIC (E. coli ELZ4000): 3.5 to 12.5 µg/mL (≈ 9.03 to 32.3 µM)
MIC (E. coli ELZ4251): 3.5 to 12.5 µg/mL (≈ 9.03 to 32.3 µM)
MIC [3]: < 1 µg/mL
MIC [4]: < 1 µg/mL
MIC (A. baumannii MXX2240): 3.5 to 12.5 µg/mL (≈ 9.03 to 32.3 µM)
MIC (K. pneumoniae MXX1232): 12.5 to 150 µg/mL (≈ 32.3 to 387 µM)
MIC [5]: 3.5 to 12.5 µg/mL (≈ 9.03 to 32.3 µM)
MIC [6]: < 1 µg/mL
MIC [7]: < 1 µg/mL
MIC [8]: < 1 µg/mL

CCc1c(-c2ccc3c(c2)cc(CNC(C)(C)C)n3C)[nH]c(=O)c(C(=O)O)c1O [Cpd 193, 6-(2-((tert-butylamino)methyl)-1-methyl-1H-indol-5-yl)-5-ethyl-4-hydroxy-2-oxo-1,2-dihydropyridine-3-carboxylic acid]
MIC [1]: < 1 µg/mL
MIC [2]: 3.5 to 12.5 µg/mL (≈ 8.81 to 31.4 µM)
MIC (E. coli 25922): < 1 µg/mL
MIC (E. coli LZ3111): 3.5 to 12.5 µg/mL (≈ 8.81 to 31.4 µM)
MIC (E. coli ELZ4000): 3.5 to 12.5 µg/mL (≈ 8.81 to 31.4 µM)
MIC (E. coli ELZ4251): 3.5 to 12.5 µg/mL (≈ 8.81 to 31.4 µM)
MIC [3]: < 1 µg/mL
MIC [4]: < 1 µg/mL
MIC (A. baumannii MXX2240): 1 to 3.5 µg/mL (≈ 2.52 to 8.81 µM)
MIC (K. pneumoniae MXX1232): 12.5 to 150 µg/mL (≈ 31.4 to 377 µM)
MIC [5]: 3.5 to 12.5 µg/mL (≈ 8.81 to 31.4 µM)
MIC [6]: < 1 µg/mL
MIC [7]: < 1 µg/mL
MIC [8]: < 1 µg/mL

CCc1c(-c2ccc3c(c2)cc(CN2CCOCC2)n3C)[nH]c(=O)c(C(=O)O)c1O [Cpd 168, 5-ethyl-4-hydroxy-6-(1-methyl-2-(morpholinomethyl)-1H-indol-5-yl)-2-oxo-1,2-dihydropyridine-3-carboxylic acid]
MIC [1]: < 1 µg/mL
MIC [2]: 1 to 3.5 µg/mL (≈ 2.43 to 8.51 µM)
MIC (E. coli 25922): 1 to 3.5 µg/mL (≈ 2.43 to 8.51 µM)
MIC (E. coli LZ3111): 3.5 to 12.5 µg/mL (≈ 8.51 to 30.4 µM)
MIC (E. coli ELZ4000): 12.5 to 150 µg/mL (≈ 30.4 to 365 µM)
MIC (E. coli ELZ4251): 12.5 to 150 µg/mL (≈ 30.4 to 365 µM)
MIC [3]: 1 to 3.5 µg/mL (≈ 2.43 to 8.51 µM)
MIC [4]: 1 to 3.5 µg/mL (≈ 2.43 to 8.51 µM)
MIC (A. baumannii MXX2240): 3.5 to 12.5 µg/mL (≈ 8.51 to 30.4 µM)
MIC (K. pneumoniae MXX1232): 12.5 to 150 µg/mL (≈ 30.4 to 365 µM)
MIC [5]: 12.5 to 150 µg/mL (≈ 30.4 to 365 µM)
MIC [6]: < 1 µg/mL
MIC [7]: < 1 µg/mL
MIC [8]: < 1 µg/mL

CCc1c(-c2ccc3c(c2)cc(CNC2(C)CC2)n3C)[nH]c(=O)c(C(=O)O)c1O [Cpd 275, 5-ethyl-4-hydroxy-6-(1-methyl-2-((1-methylcyclopropylamino)methyl)-1H-indol-5-yl)-2-oxo-1,2-dihydropyridine-3-carboxylic acid]
MIC [1]: < 1 µg/mL
MIC [2]: 3.5 to 12.5 µg/mL (≈ 8.85 to 31.6 µM)
MIC (E. coli 25922): < 1 µg/mL
MIC (E. coli LZ3111): < 1 µg/mL
MIC (E. coli ELZ4000): 1 to 3.5 µg/mL (≈ 2.53 to 8.85 µM)
MIC (E. coli ELZ4251): 1 to 3.5 µg/mL (≈ 2.53 to 8.85 µM)
MIC [3]: < 1 µg/mL
MIC [4]: 1 to 3.5 µg/mL (≈ 2.53 to 8.85 µM)
MIC (A. baumannii MXX2240): < 1 µg/mL
MIC (K. pneumoniae MXX1232): 12.5 to 150 µg/mL (≈ 31.6 to 379 µM)
MIC [5]: 3.5 to 12.5 µg/mL (≈ 8.85 to 31.6 µM)
MIC [6]: < 1 µg/mL
MIC [7]: < 1 µg/mL
MIC [8]: < 1 µg/mL

CCc1c(-c2ccc3c(c2)cc(CN2CC(O)C2)n3C)[nH]c(=O)c(C(=O)O)c1O [Cpd 187, 5-ethyl-4-hydroxy-6-(2-((3-hydroxyazetidin-1-yl)methyl)-1-methyl-1H-indol-5-yl)-2-oxo-1,2-dihydropyridine-3-carboxylic acid]
MIC [1]: < 1 µg/mL
MIC [2]: 12.5 to 150 µg/mL (≈ 31.5 to 377 µM)
MIC (E. coli 25922): < 1 µg/mL
MIC (E. coli LZ3111): 1 to 3.5 µg/mL (≈ 2.52 to 8.81 µM)
MIC (E. coli ELZ4000): 12.5 to 150 µg/mL (≈ 31.5 to 377 µM)
MIC (E. coli ELZ4251): 3.5 to 12.5 µg/mL (≈ 8.81 to 31.5 µM)
MIC [3]: 1 to 3.5 µg/mL (≈ 2.52 to 8.81 µM)
MIC [4]: 1 to 3.5 µg/mL (≈ 2.52 to 8.81 µM)
MIC (A. baumannii MXX2240): 12.5 to 150 µg/mL (≈ 31.5 to 377 µM)
MIC (K. pneumoniae MXX1232): 12.5 to 150 µg/mL (≈ 31.5 to 377 µM)
MIC [5]: 3.5 to 12.5 µg/mL (≈ 8.81 to 31.5 µM)
MIC [6]: < 1 µg/mL
MIC [7]: < 1 µg/mL
MIC [8]: < 1 µg/mL
